Results as given in PubChem BioAssay (NCI).
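Values below derive from 48-hour exposures of cells grown in 96-well plates, with endpoints linearly interpolated between the two concentrations bracketing the appropriate inhibition level. GI50 = concentration required for 50% inhibition of growth. At the TGI there is no net growth.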

The molecules below were run on KM12 colon (assay: inhibition of tumour cell growth, NCI panel, 48 h).
For `COc1cc(C2=C(c3ccccc3)COC2=O)cc(OC)c1OC`, the GI50 was 0.593 µM and the TGI was > 31.7 µM. `COc1cc(C2NC(=O)c3ccccc3N2)ccc1OCCCCCOc1c(OC)cc(C2=NOC(c3cc(OC)c(OC)c(OC)c3)C2)cc1OC` (configuration not stated) showed a GI50 of 7.59 µM and a TGI of 98.8 µM. `O=C1O[C@@H](c2ccc3c(c2)OCO3)C2C(=O)O[C@@H](c3ccc4c(c3)OCO4)C12` (some centres not stated) was tested, and the TGI was > 100 µM. With `O=C1CCC(=O)N2CCCCN12` the TGI was > 100 µM. In the case of `CC(C)C(=O)NC(=S)Nc1ccc([N+](=O)[O-])cc1C#N`, the TGI is reported as > 100 µM. For `C/C(CC(=O)Nc1cc(Cl)c(Cl)cc1Cl)=N\NC(N)=O`, the TGI was > 100 µM. With `N#Cc1cc([N+](=O)[O-])ccc1NC(=O)C(=O)Nc1n[nH]c(N)n1` the TGI was > 100 µM. In the case of `O=C(/C=C/c1c(O)ccc2ccccc12)c1cccc(O)c1`, the TGI is reported as > 100 µM. `CC1=NN(C(=O)Nc2ccccc2)C(=O)C2CCC(=O)N12` (configuration not stated) was tested, and the TGI was > 100 µM. In the case of `COC(=O)C1Cc2c(n(Cc3ccccc3)c3ccccc23)C(CCC(=O)O)N1C(C)C` (configuration not stated), the TGI is reported as > 100 µM. With `CC(C)(C)C1C=C(Sc2ccccc2)C(=O)O1` (configuration not stated) the TGI was > 100 µM. Molecule `CCC[CH2][Sn]1([CH2]CCC)[O]Cc2nc(C)ccc2[O]1` has a GI50 of 11.1 µM and a TGI of 23 µM. `Cc1ccc2c(c1)[n+]([O-])c(N)n[n+]2[O-]` was tested, and the TGI was > 100 µM. In the case of `O=c1/c(=C/c2ccco2)sc2nc3ccccc3n12`, the TGI is reported as > 100 µM. `O=C1CCC2(c3ccc(F)cc3)Nc3cc(Cl)ccc3N12` (configuration not stated) was tested, and the TGI was > 100 µM. `C/C(CC(=O)Nc1ccc(C)cc1C)=N/N=C(N)N` was tested, and the TGI was > 100 µM.

Each molecule was assayed on MALME-3M melanoma (assay: inhibition of tumour cell growth, NCI panel, 48 h).
With `NC(CCC(=O)NC(CSSCCCCS(=O)O)C(=O)NCC(=O)O)C(=O)O` (configuration not stated) the TGI was > 100 µM. With `COC12C=C(C)C(CC1)CC2C(=O)O` (configuration not stated) the TGI was > 100 µM. With `CCc1ccc(/C=C\c2cc(OC)c(OC)c(OC)c2)cc1` the GI50 was 0.0447 µM and the TGI was 37.4 µM. `O=c1c2cc([N+](=O)[O-])ccc2sc2ccsc12` was tested, and the TGI was > 100 µM. With `C=CCCCCCCCCC(=O)[O][Sn]([CH2]CCC)([CH2]CCC)[CH2]CCC` the GI50 was 0.135 µM and the TGI was 0.287 µM. `COc1ccc(C2=CC3CCC2C3)cc1` (configuration not stated) was tested, and the TGI was > 100 µM. For `COc1ccc(/C=C/CN(C)CCc2ccccc2)cc1OC`, the TGI was > 100 µM. With `[Cl-].[Dy+3].[O-]/N=C(\c1ccccc1)c1ccccn1.[O-]/N=C(\c1ccccc1)c1ccccn1.[O-]/N=C(\c1ccccc1)c1ccccn1` the GI50 was 34.4 µM and the TGI was > 100 µM. With `NC(=O)C(=O)N/N=C(\CC1(O)C(=O)Nc2ccccc21)c1ccc2ccccc2c1` (configuration not stated) the TGI was > 100 µM. In the case of `Cc1cc2c(cc1C)[n+](=O)c(C(=O)C/C(=N/NC(=O)CC#N)C(=O)Nc1ccccc1C(F)(F)F)c(C)n2[O-]`, the TGI is reported as > 100 µM. With `COC(=O)/C(=N/NC(=O)C[N+](C)(C)C)C(C(=O)OC)C(=O)C(=O)Nc1ccc(F)cc1` (configuration not stated) the TGI was > 100 µM. In the case of `O=C(c1ccccc1)c1nnc(C(=O)c2ccccc2)nn1`, the TGI is reported as > 344 µM. For `Brc1cccc(C=NC23CC4CC(CC(C4)C2)C3)c1`, the TGI was > 100 µM. `CCC[CH2][Sn]([CH2]CCC)([O]C(=O)c1cccnc1SC)[O]C(=O)c1cccnc1SC` was tested, and the GI50 was 0.295 µM and the TGI was 1.49 µM. Work on `CC1(C)OC2[C@@H](CNC(=O)NC(=O)NC(=O)CI)O[C@@H](n3cnc4c(NC(=O)Nc5ccccc5)ncnc43)[C@H]2O1` (some centres not stated) yielded a GI50 of 1.12 µM and a TGI of 2.9 µM. `COc1cc(C2=C(c3ccccc3)COC2=O)cc(OC)c1OC` was tested, and the GI50 was 0.439 µM and the TGI was > 100 µM. In the case of `O=C1CCC(=O)N2CCCCN12`, the TGI is reported as > 100 µM. `CC(C)C(=O)NC(=S)Nc1ccc([N+](=O)[O-])cc1C#N` was tested, and the TGI was > 100 µM. In the case of `C/C(CC(=O)Nc1cc(Cl)c(Cl)cc1Cl)=N\NC(N)=O`, the TGI is reported as > 100 µM. For `N#Cc1cc([N+](=O)[O-])ccc1NC(=O)C(=O)Nc1n[nH]c(N)n1`, the TGI was > 100 µM. In the case of `O=C(/C=C/c1c(O)ccc2ccccc12)c1cccc(O)c1`, the TGI is reported as > 100 µM. `COC(=O)C1Cc2c(n(Cc3ccccc3)c3ccccc23)C(CCC(=O)O)N1C(C)C` (configuration not stated) was tested, and the TGI was > 100 µM. `O=C(O)CNS(=O)(=O)c1ccc(NCc2ccccc2)cc1` was tested, and the TGI was > 100 µM. In the case of `CC(C)(C)C1C=C(Sc2ccccc2)C(=O)O1` (configuration not stated), the TGI is reported as > 100 µM. For `CCC[CH2][Sn]1([CH2]CCC)[O]Cc2nc(C)ccc2[O]1`, the GI50 was 5.03 µM and the TGI was 14.5 µM. `O=c1/c(=C/c2ccco2)sc2nc3ccccc3n12` was tested, and the GI50 was > 100 µM and the TGI was > 100 µM. `O=C1CCC2(c3ccc(F)cc3)Nc3cc(Cl)ccc3N12` (configuration not stated) was tested, and the TGI was > 100 µM. In the case of `C/C(CC(=O)Nc1ccc(C)cc1C)=N/N=C(N)N`, the TGI is reported as > 100 µM.

Each molecule was assayed on NCI/ADR-RES ovarian (assay: inhibition of tumour cell growth, NCI panel, 48 h).
In the case of `COc1ccc(-c2cnnc3c(-c4cccc(C(F)(F)F)c4)cnn23)cc1`, the GI50 is reported as 3.05 µM and the TGI is reported as > 100 µM. `C=CCCCCCCCCC(=O)[O][Sn]([CH2]CCC)([CH2]CCC)[CH2]CCC` showed a GI50 of 0.163 µM and a TGI of 0.32 µM. For `CC/C(=C(/c1ccc(O)cc1)c1ccc(OCCNC)cc1)c1ccccc1`, the GI50 was 2.32 µM and the TGI was 5.85 µM. For `CC(C)(CC(=O)Nc1ccccc1)C(=O)O`, the TGI was > 100 µM. In the case of `COc1ccc(/C(COc2c(-c3ccccc3)oc3ccccc3c2=O)=N\O)cc1`, the GI50 is reported as 11.4 µM and the TGI is reported as 39.6 µM. In the case of `CC1(C)OC2[C@@H](CNC(=O)NC(=O)NC(=O)CI)O[C@@H](n3cnc4c(NC(=O)Nc5ccccc5)ncnc43)[C@H]2O1` (some centres not stated), the GI50 is reported as 16.4 µM and the TGI is reported as > 50 µM. With `COc1cc(C2NC(=O)c3ccccc3N2)ccc1OCCCCCOc1c(OC)cc(C2=NOC(c3cc(OC)c(OC)c(OC)c3)C2)cc1OC` (configuration not stated) the GI50 was 12.7 µM and the TGI was > 51.8 µM. For `Cc1ccc2c(c1)[n+]([O-])c(N)n[n+]2[O-]`, the TGI was > 100 µM.

The molecules below were run on SF-295 CNS (assay: inhibition of tumour cell growth, NCI panel, 48 h).
In the case of `NC(CCC(=O)NC(CSSCCCCS(=O)O)C(=O)NCC(=O)O)C(=O)O` (configuration not stated), the TGI is reported as > 100 µM. `COC12C=C(C)C(CC1)CC2C(=O)O` (configuration not stated) was tested, and the TGI was > 100 µM. `OCC(O)CC[CH2][Sn]([Br])([c]1ccccc1)[c]1ccccc1` (configuration not stated) was tested, and the GI50 was > 100 µM and the TGI was > 100 µM. In the case of `CCc1ccc(/C=C\c2cc(OC)c(OC)c(OC)c2)cc1`, the TGI is reported as 0.0171 µM. With `O=c1c2cc([N+](=O)[O-])ccc2sc2ccsc12` the TGI was > 100 µM. Molecule `C=CCCCCCCCCC(=O)[O][Sn]([CH2]CCC)([CH2]CCC)[CH2]CCC` has a GI50 of 0.159 µM and a TGI of 0.337 µM. `COc1ccc(C2=CC3CCC2C3)cc1` (configuration not stated) was tested, and the TGI was > 100 µM. In the case of `COc1ccc(/C=C/CN(C)CCc2ccccc2)cc1OC`, the TGI is reported as > 100 µM. Work on `CC/C(=C(/c1ccc(O)cc1)c1ccc(OCCNC)cc1)c1ccccc1` yielded a GI50 of 1.95 µM and a TGI of 3.95 µM. `[Cl-].[Dy+3].[O-]/N=C(\c1ccccc1)c1ccccn1.[O-]/N=C(\c1ccccc1)c1ccccn1.[O-]/N=C(\c1ccccc1)c1ccccn1` was tested, and the GI50 was 20.9 µM and the TGI was 68.8 µM. In the case of `CC(C)(CC(=O)Nc1ccccc1)C(=O)O`, the TGI is reported as > 100 µM. `NC(=O)C(=O)N/N=C(\CC1(O)C(=O)Nc2ccccc21)c1ccc2ccccc2c1` (configuration not stated) was tested, and the TGI was > 100 µM. With `Cc1cc2c(cc1C)[n+](=O)c(C(=O)C/C(=N/NC(=O)CC#N)C(=O)Nc1ccccc1C(F)(F)F)c(C)n2[O-]` the TGI was > 100 µM. `COC(=O)/C(=N/NC(=O)C[N+](C)(C)C)C(C(=O)OC)C(=O)C(=O)Nc1ccc(F)cc1` (configuration not stated) was tested, and the TGI was > 100 µM. In the case of `O=C(c1ccccc1)c1nnc(C(=O)c2ccccc2)nn1`, the TGI is reported as > 344 µM. `Brc1cccc(C=NC23CC4CC(CC(C4)C2)C3)c1` was tested, and the TGI was > 100 µM. Molecule `CCC[CH2][Sn]([CH2]CCC)([O]C(=O)c1cccnc1SC)[O]C(=O)c1cccnc1SC` has a GI50 of 1.38 µM and a TGI of 2.67 µM. `CC1(C)OC2[C@@H](CNC(=O)NC(=O)NC(=O)CI)O[C@@H](n3cnc4c(NC(=O)Nc5ccccc5)ncnc43)[C@H]2O1` (some centres not stated) was tested, and the GI50 was 9.18 µM and the TGI was 19.4 µM. Work on `COc1cc(C2=C(c3ccccc3)COC2=O)cc(OC)c1OC` yielded a GI50 of 0.324 µM and a TGI of 2.9 µM. `COc1cc(C2NC(=O)c3ccccc3N2)ccc1OCCCCCOc1c(OC)cc(C2=NOC(c3cc(OC)c(OC)c(OC)c3)C2)cc1OC` (configuration not stated) was tested, and the GI50 was 2.54 µM and the TGI was > 100 µM. `O=C1O[C@@H](c2ccc3c(c2)OCO3)C2C(=O)O[C@@H](c3ccc4c(c3)OCO4)C12` (some centres not stated) was tested, and the TGI was > 100 µM. For `O=C1CCC(=O)N2CCCCN12`, the TGI was > 100 µM. `CC(C)C(=O)NC(=S)Nc1ccc([N+](=O)[O-])cc1C#N` was tested, and the TGI was > 100 µM. In the case of `C/C(CC(=O)Nc1cc(Cl)c(Cl)cc1Cl)=N\NC(N)=O`, the TGI is reported as > 100 µM. For `O=C(/C=C/c1c(O)ccc2ccccc12)c1cccc(O)c1`, the TGI was > 100 µM. In the case of `CC1=NN(C(=O)Nc2ccccc2)C(=O)C2CCC(=O)N12` (configuration not stated), the TGI is reported as > 100 µM. For `COC(=O)C1Cc2c(n(Cc3ccccc3)c3ccccc23)C(CCC(=O)O)N1C(C)C` (configuration not stated), the TGI was > 100 µM. `CC(C)(C)C1C=C(Sc2ccccc2)C(=O)O1` (configuration not stated) was tested, and the TGI was > 100 µM. With `CCC[CH2][Sn]1([CH2]CCC)[O]Cc2nc(C)ccc2[O]1` the GI50 was 2.02 µM and the TGI was 3.69 µM.
